Reference: patent publication EP1117420B1, “PHARMACEUTICAL COMPOSITIONS BASED ON ALPHA-CYCLODEXTRIN FOR THE ORAL ADMINISTRATION OF LH-RH ANALOGUES” (LABORATOIRE THERAMEX S.A., priority 1998, dated 2000)

Experiments:
[1] = molecular target: T1, LH-RH receptors (Rattus norvegicus, UniProt P30969); experiment: stimulation of LH secretion after oral gavage (plasma LH by radioimmunoassay); assay type: in vivo, Sprague-Dawley rats; parameters: from tissue; host or cells: pituitary of living adult male Sprague-Dawley rats (in vivo); conditions: 2 nmoles/rat by oral gavage, blood 2 hours after administration, male rats
T1 sequence (P30969 1-327): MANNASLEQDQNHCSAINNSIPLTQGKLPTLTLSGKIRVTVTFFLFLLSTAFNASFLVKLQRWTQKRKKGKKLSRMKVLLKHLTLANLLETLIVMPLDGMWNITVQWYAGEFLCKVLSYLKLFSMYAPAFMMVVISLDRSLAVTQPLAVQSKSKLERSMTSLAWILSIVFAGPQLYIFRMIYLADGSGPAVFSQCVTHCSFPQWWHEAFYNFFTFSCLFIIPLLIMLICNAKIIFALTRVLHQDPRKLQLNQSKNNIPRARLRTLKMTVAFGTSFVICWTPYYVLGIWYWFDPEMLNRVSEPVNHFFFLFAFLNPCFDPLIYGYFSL
Method: […] […] Total plasma testosterone (Diagnostic System Laboratories) and LH (Amersham Pharmacia Biotech) determinations were performed by radioimmunoassay. In screening 2-hour experiments, each group comprised between 6 and 8 rats; each time point of the kinetic study was studied on four animals.
Two hours after administration, plasma LH levels were measured on eight rats per dose group (Figure 7).
(§1) Then, the α-CD solution was added to fill the flask up to 10 ml to make a 2 nmol/ml solution of which 1ml was administered by oral gavage to each rat.

[2] = molecular target: T1, LH-RH receptors; experiment: stimulation of testosterone secretion after oral gavage (plasma testosterone by radioimmunoassay); assay type: in vivo, Sprague-Dawley rats; parameters: from tissue; host or cells: pituitary of living adult male Sprague-Dawley rats (in vivo); conditions: for stimulation of testosterone secretion: 5 Ng/kg oral, 2 hours, Figure 3; for total plasma testosterone (nmol/l) (m ± sem): 2 nmoles/rat by oral gavage, blood 2 hours after administration, male rats
Method: For screening purposes, blood samples were drawn 2 hours after oral administration of a common dose of 2 nmoles/rat of LH-RH peptide agonists in an aqueous solution containing 10 or 100 mM of α-CD (Tables 1 and 2; Figures 1, 4 and 6). […] Total plasma testosterone (Diagnostic System Laboratories) and LH (Amersham Pharmacia Biotech) determinations were performed by radioimmunoassay. In screening 2-hour experiments, each group comprised between 6 and 8 rats; each time point of the kinetic study was studied on four animals.
All α-CD derivatives were purchased from Cyclolab (Budapest, Hungary).
as §1
After overnight magnetic stirring at room temperature, each solution was given to rats by oral gavage in a 4 ml/kg volume to administer the same dose of 5 µg/kg of example 2 without or with increasing concentrations of α-CD.

[3] = molecular target: T1, LH-RH receptors; experiment: inhibition of ovulation by oral administration (ova in oviduct on day of expected estrus); assay type: in vivo, Wistar rats; parameters: from tissue; host or cells: pituitary of living adult female Wistar rats (in vivo)
Method: The peptides according to the general formula (I') exert an antagonist activity upon the LH-RH receptors in vivo, resulting in particular in the inhibition of ovulation.
The influence of α-, β- and γ-CD was tested on the activity of antide (an example of LH-RH peptide antagonist) when orally admininisted by gavage to normally cycling adult female Wistar rats between 1:30 and 3:00 p.m. on the day of proestrus, after at least two full regular estrous cycles as monitored by daily vaginal smears. The antiovulatory efficacy was checked the next morning, on the day of expected estrus, by looking for ova in the oviduct of treated females. The presence of at least one ovum attested that some degree of spontaneous ovulation did occur, and only the total absence of ovum was considered as effective LH-RH antagonist-induced inhibition of ovulation. Antide was solubilized in a vehicle consisting of 20% (vol/vol) propylene glycol in water already containing […], to which 10% (wt/vol) of either α-, β- or γ-CD was then added.
Each 5 mg powder vial of antide (from Bachem, Bubendorf, Switzerland) containing 4.2434 mg net peptide was dissolved in a mixture of 2.122 ml propylene glycol with 8.487 ml water containing 0.1% bovine albumin. To each 10.609 ml solution of antide (400 µg/ml), 1.061 g of either α-, β- or γ-CD was directly added to obtain a 10% concentration. Each female rat received the same volume of 1 ml of test formulation by gavage.
The same volume of administration was used for the doses of 200 and 600 µg/rat.

[4] = without α-CD (standard aqueous vehicle)
[5] = vehicle + α-CD (10%), antide 200 µg/rat p.o.
[6] = vehicle + α-CD (10%), antide 400 µg/rat p.o.
[7] = vehicle + α-CD (10%), antide 600 µg/rat p.o.
[8] = vehicle + β-CD (10%), antide 400 µg/rat p.o.
[9] = vehicle + γ-CD (10%), antide 400 µg/rat p.o.
[10] = vehicle only, antide 200 µg/rat p.o.
[11] = vehicle only, antide 400 µg/rat p.o.
[12] = vehicle only, antide 600 µg/rat p.o.

Molecule | total plasma LH (ng/ml) (m ± sem) ([1]; with α-CD (100 mM solution)) [ng/mL] | total plasma LH (ng/ml) (m ± sem) ([1]; without α-CD) [ng/mL] | total plasma testosterone (nmol/l) (m ± sem) ([2]; with α-CD (100 mM solution)) | total plasma testosterone (nmol/l) (m ± sem) [2, 4] [nmol/L] | further results
CCNC(=O)[C@@H]1CCCN1C(=O)[C@H](CCCNC(=N)N)NC(=O)[C@H](CC(C)(C)C)NC(=O)[C@@H](C)NC(=O)[C@H](Cc1ccc(O)cc1)NC(=O)[C@H](CO)NC(=O)[C@H](Cc1c[nH]c2ccccc12)NC(=O)[C@H](Cc1c[nH]cn1)NC(=O)[C@@H]1CCC(=O)N1 [Example 2, [D-Ala^6, Npg7, desGly^10-ProNEt^9]LH-RH] | 19.7 ± 3.70 | 1.6 ± 0.14 | 72.8 ± 4.64 nmol/L | 23.0 ± 8.54 | stimulation of testosterone secretion ([2]; with 5% (51.4 mM) α-CD): did enhance; stimulation of testosterone secretion ([2]; with 10% (103 mM) as well as 14% (144 mM) α-CD): maximal level
CCNC(=O)[C@@H]1CCCN1C(=O)[C@H](CCCNC(=N)N)NC(=O)[C@H](CC(C)(C)C)NC(=O)[C@@H](Cc1ccccc1)NC(=O)[C@H](Cc1ccc(O)cc1)NC(=O)[C@H](CO)NC(=O)[C@H](Cc1c[nH]c2ccccc12)NC(=O)[C@H](Cc1c[nH]cn1)NC(=O)[C@@H]1CCC(=O)N1 [Example 4, [D-Phe^6, Npg7, desGly^10-ProNEt^9]LH-RH] | 16.1 ± 5.22 | 1.4 ± 0.17 | 67.9 ± 9.11 nmol/L | 30.1 ± 5.86 | 
CCNC(=O)[C@@H]1CCCN1C(=O)[C@H](CCCNC(=N)N)NC(=O)[C@H](CC(C)C)NC(=O)[C@@H](C)NC(=O)[C@H](Cc1ccc(O)cc1)NC(=O)[C@H](CO)NC(=O)[C@H](Cc1c[nH]c2ccccc12)NC(=O)[C@H](Cc1c[nH]cn1)NC(=O)[C@@H]1CCC(=O)N1 [Example 6, [D-Ala^6, desGly^10-ProNet^9]LH-RH] |  |  | 61.8 ± 5.10 nmol/L | 28.3 ± 4.56 | 
[(S)spirolactam(Pro^6, Npg^7), desGly^10-ProNEt^9]LH-RH [Example 1] | 7.1 ± 1.68 | 1.5 ± 0.19 | 58.0 ± 8.75 nmol/L | 40.1 ± 6.78 | 
[Npg^7]triptorelin [Example 5] | 3.2 ± 0.56 | 1.4 ± 0.10 | 52.1 ± 6.99 nmol/L | 15.8 ± 4.24 | 
antide |  |  |  |  | influence of Beta- and γ-CD on the minimal activity of antide ([3]; combined with β- or γ-CD (10%), dose level of 400): no influence; animals showing inhibition of ovulation ([3]; out of 22 animals, vehicle only, threshold dose of 400): 3; n ovulations/ N treated rats [3, 5]: 6/8; percentage of inhibition [3, 5]: 25%; n ovulations/ N treated rats [3, 6]: 6/22; percentage of inhibition [3, 6]: 73%; n ovulations/ N treated rats [3, 7]: 2/8; percentage of inhibition [3, 7]: 75%; n ovulations/ N treated rats [3, 8]: 7/7; percentage of inhibition [3, 8]: 0%; n ovulations/ N treated rats [3, 9]: 7/7; percentage of inhibition [3, 9]: 0%; threshold effective dose by oral administration ([3]; vehicle only (no cyclodextrin), inhibition of ovulation): 400 µg/rat; n ovulations/ N treated rats [3, 10]: 8/8; percentage of inhibition [3, 10]: 0%; n ovulations/ N treated rats [3, 11]: 19/22; percentage of inhibition [3, 11]: 14%; n ovulations/ N treated rats [3, 12]: 5/8; percentage of inhibition [3, 12]: 44%
deslorelin |  |  | marked potency | 9.7 ± 2.41 | total plasma testosterone (nmol/l) (m ± sem) ([2]; with α-CD (100 mM solution), listed as Deslorelin (α-CD)): 48.2 ± 7.29 nmol/L; total plasma testosterone (nmol/l) (m ± sem) ([2]; without α-CD (standard aqueous vehicle), listed as deslorelin): inactive
goserelin |  |  | 66.5 ± 6.19 nmol/L | 21.4 ± 5.99 | 
triptorelin | 10.1 ± 2.54 | 1.4 ± 0.10 | 61.9 ± 6.01 nmol/L | 25.8 ± 3.14 | 
